Assays:
Assay in all cases: relative viability (nuclei count vs DMSO), 5 days (fraction); higher = more cells survive
[1] = compound: Cc1ccc(C(=O)Nc2cccc(C(F)(F)F)c2)cc1Nc1cncc(C(N)=O)c1 [ALW-II-49-7] + CC(=O)Nc1cccc(-n2c(=O)n(C3CC3)c(=O)c3c(Nc4ccc(I)cc4F)n(C)c(=O)c(C)c32)c1 [Trametinib] (partner 0.02 µM)
Summary of the method: (§1)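 After 5 days of treatment, lung cancer cells in 1536-well plates were fixed and stained in a single step (final 0.05% Triton X-100, 1% formaldehyde, 1 ug/ml Hoechst) and their nuclei counted on 4× images. Treatment had been applied by pin tool the day after seeding as one drug alone or as a fixed anchor-drug dose with five library-drug doses (not always all listed) in √10 steps. Relative viability is the nuclei count of treated wells divided by that of vehicle wells, and values are medians of duplicate plates.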

[2] = compound: Cc1ccc(C(=O)Nc2cccc(C(F)(F)F)c2)cc1Nc1cncc(C(N)=O)c1 [ALW-II-49-7] + O=C(CCCCCCC(=O)Nc1ccccc1)NO [Vorinostat] (partner 1 µM)
Summary of the method: as §1

[3] = compound: C1CC1C(=O)NC2=NNC3=C2C=CC(=C3)C4=CC(=CC=C4)C(=O)NC5CC5 [XMD13-2] + O=C(c1cc(Cc2n[nH]c(=O)c3ccccc23)ccc1F)N1CCN(C(=O)C2CC2)CC1 [Olaparib] (partner 8 µM)
Summary of the method: as §1

[4] = compound: C1CC1C(=O)NC2=NNC3=C2C=CC(=C3)C4=CC(=CC=C4)C(=O)NC5CC5 [XMD13-2] + Nc1nc2[nH]cc(CCc3ccc(C(=O)N[C@@H](CCC(=O)O)C(=O)O)cc3)c2c(=O)[nH]1 [Pemetrexed] (partner 0.2 µM)
Summary of the method: as §1

Cell Line | relative viability ([1]; first compound 0.08 µM) | relative viability ([1]; first compound 0.253 µM) | relative viability ([1]; first compound 0.8 µM) | relative viability ([1]; first compound 2.53 µM) | relative viability ([1]; first compound 8 µM) | relative viability ([2]; first compound 0.08 µM) | relative viability ([2]; first compound 0.253 µM) | relative viability ([2]; first compound 0.8 µM) | relative viability ([2]; first compound 2.53 µM) | relative viability ([2]; first compound 8 µM) | relative viability ([3]; first compound 0.05 µM) | relative viability ([3]; first compound 0.1581 µM) | relative viability ([3]; first compound 0.5 µM) | relative viability ([3]; first compound 5 µM) | relative viability ([4]; first compound 0.05 µM) | relative viability ([4]; first compound 0.1581 µM) | relative viability ([4]; first compound 0.5 µM) | relative viability ([4]; first compound 5 µM) | relative viability ([3]; first compound 1.581 µM) | relative viability ([4]; first compound 1.581 µM)
PC-3 [JPC-3] | 0.676 | 0.786 | 0.745 | 0.809 | 0.847 | 0.833 | 0.822 | 0.678 | 0.846 | 0.742 | 1.16 | 1.12 | 1.12 | 1.05 | 1.23 | 1.04 | 1.14 | 1.12 | – | –
HCC-44 | 1.08 | 0.994 | 1.03 | 1.09 | 1.26 | 1.14 | 1.11 | 1.11 | 1.12 | 1.09 | 1.01 | 0.983 | 0.974 | 0.986 | 0.573 | 0.536 | 0.67 | 0.631 | 1.03 | 0.727
NCI-H2405 | 0.662 | 0.699 | 0.637 | 0.47 | 0.467 | 1.08 | 1.14 | 0.968 | 0.905 | 0.789 | 0.931 | 0.874 | 0.931 | 0.843 | 1.18 | 1.02 | 1.11 | 1.07 | – | –
LXF-289 | 0.604 | 0.715 | 0.681 | 0.67 | 0.626 | 0.726 | 0.877 | 0.81 | 0.854 | 0.762 | 1.28 | 1.03 | 1.15 | 1.05 | 0.92 | 0.952 | 0.892 | 0.952 | 0.99 | 0.964
LOU-NH91 | 0.755 | 0.787 | 0.804 | – | 0.706 | 0.884 | 0.888 | 1 | – | 0.805 | 0.976 | 0.958 | 0.97 | 0.944 | 0.319 | 0.409 | 0.392 | 0.371 | 0.869 | 0.435
A549 | – | – | – | – | – | – | – | – | – | – | 0.415 | 0.185 | 0.453 | 0.437 | – | – | – | – | 0.358 | –
H3255 | 0.856 | 0.52 | 0.681 | 0.62 | 0.455 | 0.925 | 0.804 | 0.813 | 0.735 | 0.686 | 0.635 | 0.634 | 0.584 | 0.558 | 0.618 | 0.546 | 0.579 | 0.625 | 0.519 | 0.611
NCI-H1395 | 0.906 | 1.1 | 1.3 | – | 0.938 | 0.649 | 0.699 | 0.733 | – | 0.569 | 0.48 | 0.493 | 0.46 | 0.504 | 0.93 | 0.998 | 0.879 | 0.911 | 0.477 | 0.876
LC-2-ad | 0.94 | 0.917 | 0.881 | 0.858 | 0.945 | 0.681 | 0.763 | 0.691 | 0.698 | 0.528 | 0.684 | 0.716 | 0.681 | 0.718 | 0.285 | 0.26 | 0.282 | 0.256 | 0.701 | 0.303
NCI-H838 | 0.631 | 0.531 | 0.433 | 0.49 | 0.453 | 0.778 | 0.748 | 0.693 | 0.759 | 0.769 | 0.865 | 0.749 | 0.817 | 0.699 | 0.249 | 0.226 | 0.263 | 0.254 | 0.774 | 0.251
Calu-6 | – | – | – | – | – | – | – | – | – | – | 0.615 | 0.586 | – | 0.512 | – | – | – | – | 0.605 | –
NCI-H1648 | 0.522 | 0.317 | 0.462 | 0.347 | 0.449 | 0.346 | 0.298 | 0.287 | 0.327 | 0.425 | 0.983 | – | 0.841 | 0.509 | 0.702 | – | 0.726 | 0.719 | 0.762 | 0.705
LCLC-97TM1 | 0.184 | 0.207 | 0.198 | 0.161 | 0.223 | 0.96 | 0.683 | 0.642 | 0.685 | 0.49 | 0.498 | 0.507 | 0.336 | 0.173 | 0.178 | 0.155 | 0.166 | 0.159 | 0.263 | 0.185
HCC-15 | 0.396 | 0.4 | 0.399 | 0.353 | 0.387 | 0.913 | 0.807 | 0.916 | 0.802 | 0.893 | 0.706 | 0.66 | 0.785 | 0.661 | 0.237 | 0.204 | 0.218 | 0.214 | 0.669 | 0.224
CAL-12T | 0.294 | 0.336 | 0.346 | 0.307 | 0.288 | 0.681 | 0.866 | 0.834 | 0.737 | 0.76 | 0.694 | 0.799 | 0.708 | 0.697 | 1.27 | 1.1 | 1.25 | 1.23 | 0.695 | 1.11
NCI-H727 | 0.393 | 0.378 | 0.354 | 0.357 | 0.365 | 1.16 | 1.33 | 1.02 | 1.14 | 1.12 | 0.679 | 0.711 | 0.683 | 0.647 | – | – | – | – | 0.74 | –
ABC-1 | – | – | – | – | – | 1.05 | 1.2 | 1.13 | 0.78 | 1.27 | 0.925 | 0.869 | 1.08 | 0.688 | – | – | – | – | – | –
NCI-H2023 | 0.468 | 0.557 | 0.69 | 0.503 | 0.53 | 0.683 | 0.688 | 0.434 | 0.64 | 0.625 | 0.567 | 0.472 | 0.504 | 0.507 | 0.261 | 0.206 | 0.195 | 0.246 | 0.492 | 0.242
NCI-H2342 | 0.709 | 0.817 | 0.828 | 0.69 | 0.786 | 0.702 | 0.922 | 0.744 | 0.837 | 0.859 | 0.424 | 0.383 | 0.386 | 0.463 | 0.806 | 0.711 | 0.772 | 0.775 | 0.403 | 0.72

— the supplement of paper PMC10307832
